Assay results: patent US10166216B2 (Rigel Pharmaceuticals, Inc., priority 2006, dated 2019)
pIC50: −log10 of the molar value.

Molecular target: Axl (Homo sapiens (Human), UniProt P30530)
Experiment: Phospho-Akt in-cell Western assay (Axl-antibody cross-linking stimulation)
Type: cell-based
Conditions: inhibition of Axl activity, Hela cells, phospho-Akt readout; Table 1, formula (Ia1)
Method: The working solution: dilute the stock 1:20 with PBS immediately before use. • 10% SDS: working solution: 5% SDS (sodium dodecylsulfate), diluted in PBS Methods: Day 1:
A 96 well TC (tissue culture treated) plate was coated with 10 μg/mL poly-L-Lysine at 37° C. for 30 min, washed twice with PBS, and air-dried for 5 minutes before cells were added. Hela cells were seeded at 10,000 cells/well and the cells were starved in 100 μL starvation medium containing Axl/Fc for 24 hrs.
The cells were pre-treated with test compounds by adding 100 μL of 2× test compound to the starvation medium on the cells. The cells were incubated at 37° C. for 1 hr before stimulation.
The resulting mix was warmed to 37° C. 50 μL of 5× Axl 1st/2nd of antibody cluster was added to the cells and the cells were incubated at 37° C. for 5 min.
After 5 minutes stimulation, the plate was flicked to remove medium and the plate was tapped onto paper towels. Formaldehyde (4.0% in PBS, 100 μL) was added to fix the cells and the cells were incubated at ambient temperature for 20 min without shaking.
The cells were washed with a plate washer buffer to remove the formaldehyde solution. The plate was flicked to removed excess wash buffer and tapped onto paper towels. Quenching buffer (100 μL) was added to each well and the cells were incubated at ambient temperature for 20 minutes without shaking.
The cells were washed with a plate washer buffer to remove the quenching buffer. Blocking buffer (100 μL) was added and the cells were incubated at ambient temperature for at least an hour with gentle shaking.
The cells were washed with a plate washer buffer and diluted primary antibody (50 μL) was added to each well (blocking buffer was added to the negative control wells instead). The plates were incubated overnight at 4° C. with gentle shaking.
The wash buffer was removed, diluted secondary antibody (100 μL) was added, and the cells were incubated at ambient temperature for 1 hour with gentle shaking. During the incubation, the chemiluminescent reagent was brought to ambient temperature.
The secondary antibody was removed by washing the cells 1× with wash buffer, 1× with PBS by plate washer. The PBS was removed from the plate and the chemiluminescent reagent (80 μL: 40 μL A and 40 μL B) was added to each well at ambient temperature.
The resulting chemiluminescence was read with a Luminomitor within 10 minutes to minimize changes in signal intensity. […] The plate was tapped onto paper towels to remove excess liquid from wells and air-dried at ambient temperature for 5 minutes.
Crystal Violet working solution (60 μL) was added to each well and the cells were incubated at ambient temperature for 30 min. The crystal violet solution was removed, and the wells were rinsed with PBS, then washed 3× with PBS (200 μL) for 5 minutes each.
5% SDS solution (70 μL) was added to each well and the cells were incubated on a shaker for 30 min at ambient temperature.
This relative cell number was then used to normalize each luminescence reading. […]

Axl, sequence (P30530 26-894): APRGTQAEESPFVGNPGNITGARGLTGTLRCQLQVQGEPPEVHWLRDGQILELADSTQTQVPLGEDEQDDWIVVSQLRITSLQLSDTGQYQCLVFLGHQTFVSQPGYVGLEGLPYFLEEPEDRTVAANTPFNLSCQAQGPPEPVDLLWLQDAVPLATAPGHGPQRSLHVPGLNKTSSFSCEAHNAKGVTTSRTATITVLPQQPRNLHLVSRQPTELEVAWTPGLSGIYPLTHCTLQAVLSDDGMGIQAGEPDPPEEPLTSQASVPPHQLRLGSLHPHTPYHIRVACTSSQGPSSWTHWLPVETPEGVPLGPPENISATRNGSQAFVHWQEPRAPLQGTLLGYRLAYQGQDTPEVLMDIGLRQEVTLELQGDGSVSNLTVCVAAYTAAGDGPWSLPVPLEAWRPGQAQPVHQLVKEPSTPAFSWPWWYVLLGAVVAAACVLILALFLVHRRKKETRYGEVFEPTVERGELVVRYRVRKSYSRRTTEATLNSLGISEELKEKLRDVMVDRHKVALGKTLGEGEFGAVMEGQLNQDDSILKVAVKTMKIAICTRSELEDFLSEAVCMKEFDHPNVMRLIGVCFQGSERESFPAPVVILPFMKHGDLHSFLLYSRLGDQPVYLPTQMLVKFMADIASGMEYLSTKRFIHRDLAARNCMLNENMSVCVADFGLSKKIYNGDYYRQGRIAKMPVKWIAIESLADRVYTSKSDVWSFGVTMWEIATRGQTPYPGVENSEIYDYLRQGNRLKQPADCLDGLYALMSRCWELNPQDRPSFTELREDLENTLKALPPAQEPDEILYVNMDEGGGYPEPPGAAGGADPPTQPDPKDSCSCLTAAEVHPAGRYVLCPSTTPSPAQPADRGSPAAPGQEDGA

First: CN(C)c1cccc(-n2nc(Nc3ccc(OCCN4CCCCC4)cc3)nc2N)n1 [Compound 36, 1-(6-(dimethylamino)pyridin-2-yl)-N^3-(4-(2-(piperidin-1-yl)ethoxy)phenyl)-1H-1,2,4-triazole-3,5-diamine]
Second: Nc1nc(Nc2ccc(OCCN3CCCC3)cc2)nn1-c1ccc2ccccc2n1 [Compound 41, N^3-(4-(2-(pyrrolidin-1-yl)ethoxy)phenyl)-1-(quinolin-2-yl)-1H-1,2,4-triazole-3,5-diamine]
The pIC50 of the first is lower: 4.70 to 5.00 for the first, over 6.00 for the second.

`Nc1nc(Nc2ccc(OCCN3CCCC3)cc2)nn1-c1nc(Cl)nc2ccccc12` [Compound 37, 1-(2-chloroquinazolin-4-yl)-N^3-(4-(2-(pyrrolidin-1-yl)ethoxy)phenyl)-1H-1,2,4-triazole-3,5-diamine] and `Nc1nc(Nc2ccc(OCCN3CCCC3)cc2)nn1-c1nc(C(F)(F)F)nc2ccccc12` [Compound 53, N^3-(4-(2-(pyrrolidin-1-yl)ethoxy)phenyl)-1-(2-(trifluoromethyl)quinazolin-4-yl)-1H-1,2,4-triazole-3,5-diamine] cannot be ordered by pIC50: over 6.00 for the first, over 6.00 for the second.

Compared with `Nc1nc(Nc2ccc(OCCN3CCCC3)cc2)nn1-c1nc(N2CCOCC2)nc2ccccc12` [Compound 38, 1-(2-morpholinoquinazolin-4-yl)-N^3-(4-(2-(pyrrolidin-1-yl)ethoxy)phenyl)-1H-1,2,4-triazole-3,5-diamine], `Nc1nc(Nc2ccc(OCCN3CCCC3)cc2)nn1-c1nccc2ccccc12` [Compound 50, 1-(isoquinolin-1-yl)-N^3-(4-(2-(pyrrolidin-1-yl)ethoxy)phenyl)-1H-1,2,4-triazole-3,5-diamine] is higher in pIC50: 5.00 to 6.00 for the first, over 6.00 for the second. The second is the more potent here.

`Nc1nc(Nc2ccc(OCCN3CCCC3)c(Cl)c2)nn1-c1nc2ccccc2s1` [Compound 39, 1-(benzo[d]thiazol-2-yl)-N^3-(3-chloro-4-(2-(pyrrolidin-1-yl)ethoxy)phenyl)-1H-1,2,4-triazole-3,5-diamine] and `Nc1nc(Nc2ccc(OCCN3CCCC3)c(F)c2)nn1-c1nc2ccccc2s1` [Compound 56, 1-(benzo[d]thiazol-2-yl)-N^3-(3-fluoro-4-(2-(pyrrolidin-1-yl)ethoxy)phenyl)-1H-1,2,4-triazole-3,5-diamine] cannot be ordered by pIC50: over 6.00 for the first, over 6.00 for the second.

`Cn1c(-n2nc(Nc3ccc(OCCN4CCCC4)c(Cl)c3)nc2N)nc2ccccc21` [Compound 40, N^3-(3-chloro-4-(2-(pyrrolidin-1-yl)ethoxy)phenyl)-1-(1-methyl-1H-benzo[d]imidazol-2-yl)-1H-1,2,4-triazole-3,5-diamine] and `Nc1nc(Nc2ccc(OCCN3CCCC3)c(Cl)c2)nn1-c1nccc2ccccc12` [Compound 62, N^3-(3-chloro-4-(2-(pyrrolidin-1-yl)ethoxy)phenyl)-1-(isoquinolin-1-yl)-1H-1,2,4-triazole-3,5-diamine] cannot be ordered by pIC50: over 6.00 for the first, over 6.00 for the second.

`Cc1cc(O)nc(-n2nc(Nc3ccc(OCCN4CCCC4)cc3)nc2N)n1` [Compound 42, 2-(5-amino-3-(4-(2-(pyrrolidin-1-yl)ethoxy)phenylamino)-1H-1,2,4-triazol-1-yl)-6-methylpyrimidin-4-ol] and `Nc1nc(Nc2ccc(OCCN3CCCC3)cc2)nn1-c1ncccn1` [Compound 47, 1-(pyrimidin-2-yl)-N^3-(4-(2-(pyrrolidin-1-yl)ethoxy)phenyl)-1H-1,2,4-triazole-3,5-diamine] cannot be ordered by pIC50: under 4.70 for the first, under 4.70 for the second.

`COc1cc2nc(Cl)nc(-n3nc(Nc4ccc(OCCN5CCCC5)cc4)nc3N)c2cc1OC` [Compound 44, 1-(2-chloro-6,7-dimethoxyquinazolin-4-yl)-N^3-(4-(2-(pyrrolidin-1-yl)ethoxy)phenyl)-1H-1,2,4-triazole-3,5-diamine] and `COc1cc2ncnc(-n3nc(Nc4ccc(OCCN5CCCC5)cc4)nc3N)c2cc1OC` [Compound 45, 1-(6,7-dimethoxyquinazolin-4-yl)-N^3-(4-(2-(pyrrolidin-1-yl)ethoxy)phenyl)-1H-1,2,4-triazole-3,5-diamine] cannot be ordered by pIC50: over 6.00 for the first, over 6.00 for the second.

`CC1CCC(C)N1CCOc1ccc(Nc2nc(N)n(-c3cnc4ccccc4n3)n2)cc1` (centres unmarked) [Compound 46, N^3-(4-(2-(2,5-dimethylpyrrolidin-1-yl)ethoxy)phenyl)-1-(quinoxalin-2-yl)-1H-1,2,4-triazole-3,5-diamine] and `Nc1nc(Nc2ccc(OCCN3CCCC3)c(F)c2)nn1-c1cnc2ccccc2n1` [Compound 55, N^3-(3-fluoro-4-(2-(pyrrolidin-1-yl)ethoxy)phenyl)-1-(quinoxalin-2-yl)-1H-1,2,4-triazole-3,5-diamine] cannot be ordered by pIC50: over 6.00 for the first, over 6.00 for the second.

`Nc1nc(Nc2ccc(OCCN3CCCC3)cc2)nn1-c1nc(Cl)nc2c1CCC2` [Compound 49, 1-(2-chloro-6,7-dihydro-5H-cyclopenta[d]pyrimidin-4-yl)-N^3-(4-(2-(pyrrolidin-1-yl)ethoxy)phenyl)-1H-1,2,4-triazole-3,5-diamine] and `Nc1nc(Nc2ccc(OCCN3CCCC3)cc2)nn1-c1ncnc2sc3c(c12)CCC3` [Compound 66, 1-(6,7-dihydro-5H-cyclopenta[4,5]thieno[2,3-d]pyrimidin-4-yl)-N^3-(4-(2-(pyrrolidin-1-yl)ethoxy)phenyl)-1H-1,2,4-triazole-3,5-diamine] cannot be ordered by pIC50: over 6.00 for the first, over 6.00 for the second.

`Nc1nc(Nc2ccc(OCCN3CCCC3)cc2)nn1-c1ncnc2sccc12` [Compound 51, N^3-(4-(2-(pyrrolidin-1-yl)ethoxy)phenyl)-1-(thieno[2,3-d]pyrimidin-4-yl)-1H-1,2,4-triazole-3,5-diamine] and `Nc1nc(Nc2ccc(OCCN3CCCC3)cc2)nn1-c1ncnc2ccsc12` [Compound 54, N^3-(4-(2-(pyrrolidin-1-yl)ethoxy)phenyl)-1-(thieno[3,2-d]pyrimidin-4-yl)-1H-1,2,4-triazole-3,5-diamine] cannot be ordered by pIC50: over 6.00 for the first, over 6.00 for the second.

`Nc1nc(Nc2ccc(OCCN3CCCC3)cc2)nn1-c1ncnc2cc(-c3ccccc3)sc12` [Compound 52, 1-(6-phenylthieno[3,2-d]pyrimidin-4-yl)-N^3-(4-(2-(pyrrolidin-1-yl)ethoxy)phenyl)-1H-1,2,4-triaozle-3,5-diamine] and `Nc1nc(Nc2ccc(OCCN3CCCC3)cc2)nn1-c1nccc2ccsc12` [Compound 64, N^3-(4-(2-(pyrrolidin-1-yl)ethoxy)phenyl)-1-(thieno[2,3-c]pyridin-7-yl)-1H-1,2,4-triazole-3,5-diamine] cannot be ordered by pIC50: over 6.00 for the first, over 6.00 for the second.

`Nc1nc(Nc2ccc(OCCN3CCCC3)c(F)c2)nn1-c1ccccn1` [Compound 57, N^3-(3-fluoro-4-(2-(pyrrolidin-1-yl)ethoxy)phenyl)-1-(pyridin-2-yl)-1H-1,2,4-triazole-3,5-diamine] and `Nc1nc(Nc2ccc(OCCN3CCCC3)c(F)c2)nn1-c1nccc2ccccc12` [Compound 58, N^3-(3-fluroo-4-(2-(pyrrolidin-1-yl)ethoxy)phenyl)-1-(isoquinolin-1-yl)-1H-1,2,4-triaozle-3,5-diamine] cannot be ordered by pIC50: over 6.00 for the first, over 6.00 for the second.

`Nc1nc(Nc2ccc(OCCN3CCCC3)cc2)nn1-c1ncnc2sc3c(c12)CCCC3` [Compound 61, 1-(5,6,7,8-tetrahydrobenzo[4.,5]thieno[2,3-d]pyrimidin-4-yl)-N^3-(4-(2-(pyrrolidin-1-yl)ethoxy)phenyl)-1H-1,2,4-triazole-3,5-diamine] and `Nc1nc(Nc2ccc(OCCN3CCCC3)c(Cl)c2)nn1-c1ncnc2sc3c(c12)CCCC3` [Compound 67, N^3-(3-chloro-4-(2-(pyrrolidin-1-yl)ethoxy)phenyl)-1-(5,6,7,8-tetrahydrobenzo[4,5]thieno[2,3-d]pyrimidin-4-yl)-1H-1,2,4-triazole-3,5-diamine] cannot be ordered by pIC50: over 6.00 for the first, over 6.00 for the second.

`Nc1nc(Nc2ccc(OCCN3CCCC3)c(F)c2)nn1-c1ncnc2sc3c(c12)CCCC3` [Compound 68, N^3-(3-fluoro-4-(2-(pyrrolidin-1-yl)ethoxy)phenyl)-1-(5,6,7,8-tetrahydrobenzo[4,5]thieno[2,3-d]pyrimidin-4-yl)-1H-1,2,4-triazole-3,5-diamine] and `Nc1nc(Nc2ccc(OCCN3CCCC3)cc2)nn1-c1nccc2occc12` [Compound 69, 1-(furo[3,2-c]pyridin-4-yl)-N^3-(4-(2-(pyrrolidin-1-yl)ethoxy)phenyl)-1H-1,2,4-triazole-3,5-diamine] cannot be ordered by pIC50: over 6.00 for the first, over 6.00 for the second.

Work on `Nc1nc(Nc2ccc(OCCN3CCCC3)cc2)nn1-c1cc2c(nn1)-c1ccccc1CC2` [Compound 75, 1-(5,6-dihydrobenzo[h]cinnolin-3-yl)-N^3-(4-(2-(pyrrolidin-1-yl)ethoxy)phenyl)-1H-1,2,4-triazole-3,5-diamine] yielded a pIC50 of over 6.00.
